Reference: patent US8785653B2, “(3-aryl-1H-1,2,4-triazol-5-yl)-linked heterocycle derivatives” (H. Lundbeck A/S, priority 2009, dated 2014)

What was measured:
PDE10A enzyme = target: T1, PDE10A enzyme (Homo sapiens, UniProt Q9Y233); assay: PDE10A inhibition assay; type: biochemical; settings: 3H-labelled cAMP substrate 5 nM, SPA beads, one hr at room temperature
T1 construct: made in house; host or cells: E. coli BL21(DE3)
Experimental: Active PDE10A enzyme is prepared in a number of ways for use in PDE assays (Loughney, K. et al. Gene 1999, 234, 109-117; Fujishige, K. et al. Eur J Biochem. 1999, 266, 1118-1127 and Soderling, S. et al. Proc. Natl. Acad. Sci. 1999, 96, 7071-7076). PDE10A can be expressed as full-length proteins or as truncated proteins, as long as they express the catalytic domain. PDE10A can be prepared in different cell types, for example insect cells or E. coli. An example of a method to obtain catalytically active PDE10A is as follows: The catalytic domain of human PDE10A (amino acids 440-779 from the sequence with accession number NP 006652) is amplified from total human brain total RNA by standard RT-PCR and is cloned into the BamH1 and Xho1 sites of the pET28a vector (Novagen). Expression in coil is performed according to standard protocols. Briefly, the expression plasmids are transformed into the BL21(DE3) E. coli strain, and 50 mL cultures inoculated with the cells allowed to grow to an OD600 of 0.4-0.6 before protein expression is induced with 0.5mM IPTG. Following induction, the cells are incubated overnight at room temperature, after which the cells are collected by centrifugation. Cells expressing PDE10A are resuspended in 12 mL (50 mM TRIS-HCl-pH8.0, 1 mM MgCl2 and protease inhibitors). The cells are lysed by sonication, and after all cells are lysed, TritonX100 is added according to Novagen protocols.
A PDE10A assay may for example, be performed as follows: The assay is performed in 60 uL samples containing a fixed amount of the relevant PDE enzyme (sufficient to convert 20-25% of the cyclic nucleotide substrate), a buffer (50 mM HEPES7.6; 10 mM MgCl2; 0.02% Tween20), 0.1 mg/mI BSA, 225 pCi of ^3H-labelled cyclic nucleotide substrate, tritium labeled cAMP to a final concentration of 5 nM and varying amounts of inhibitors. Reactions are initiated by addition of the cyclic nucleotide substrate, and reactions are allowed to proceed for one hr at room temperature before being terminated through mixing with 15 uL 8 mg/mL yttrium silicate SPA beads (Amersham). The beads are allowed to settle for one hr in the dark before the plates are counted in a Wallac 1450 Microbeta counter. The measured signal can be converted to activity relative to an uninhibited control (100%) and IC50 values can be calculated using the XIfit extension to EXCEL.

rats [1] = settings: cited from earlier work
rats [2] = settings: cited from earlier work; remark: listed apart in the source
rats [3] = settings: cited from earlier work; remark: listed apart in the source

T1 sequence (Q9Y233 716-1055): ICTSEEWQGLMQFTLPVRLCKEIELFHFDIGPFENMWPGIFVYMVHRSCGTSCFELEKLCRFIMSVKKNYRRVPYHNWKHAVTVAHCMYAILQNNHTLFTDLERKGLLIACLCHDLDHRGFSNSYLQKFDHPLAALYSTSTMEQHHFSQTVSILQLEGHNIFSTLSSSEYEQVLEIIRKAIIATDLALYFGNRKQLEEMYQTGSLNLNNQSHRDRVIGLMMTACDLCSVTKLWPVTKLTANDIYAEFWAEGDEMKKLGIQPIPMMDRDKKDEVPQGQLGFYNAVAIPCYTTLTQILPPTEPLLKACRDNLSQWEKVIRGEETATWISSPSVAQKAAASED

Row | Compound | IC50 (PDE10A enzyme) | other results
1 | COc1ccc(Cc2nccc3cc(OC)c(OC)cc23)cc1OC [Papaverine, papaverine] | – | catalepsy on its own (rats [1]; papaverine alone): did not cause catalepsy; cataleptic effect of the D2 receptor antagonist haloperidol (rats [1]; together with haloperidol): potentiated; hyperactivity induced by PCP (rats [2]): reduced hyperactivity; reduction of amphetamine induced hyperactivity (rats [3]): insignificant
2 | Cc1cnc(-c2nc(CCc3nc4c(C)ncc(C)n4n3)n(C)n2)s1 [5,8-Dimethyl-2-{2-[2-methyl-5-(5-methyl-thiazol-2-yl)-2H-[1,2,4]triazol-3-yl]-ethyl}-[,2,4]triazolo[1,5-a]pyrazine] | 120 nM | –
3 | Cc1ncc(C)n2nc(CCc3nc(-c4ccccc4)nn3C)nc12 [5,8-Dimethyl-2-[2-(2-methyl-5-phenyl-2H-[1,2,4]triazol-3-yl)-ethyl]-[1,2,4]triazolo[1,5-a]pyrazine] | 15 nM | –
4 | Cc1ncc(C)n2nc(CCc3nc(-c4ccccc4)nn3CCC#N)nc12 [3-{5-[2-(5,8-Dimethyl-[1,2,4]triazolo[1,5-a]pyrazin-2-yl)-ethyl]-3-phenyl-[1,2,4]triazol-1-yl}-propionitrile] | 25 nM | –
5 | Cc1cccc2nc(CCc3nc(-c4ccccc4)nn3C)nn12 [5-Methyl-2-[2-(2-methyl-5-phenyl-2H-[1,2,4]triazol-3-yl)-ethyl]-[1,2,4]triazolo[1,5-a]pyridine] | 220 nM | –
6 | CCCn1nc(-c2ccccc2)nc1CCc1nc2c(OC)ccc(C)n2n1 [8-Methoxy-5-methyl-2-[2-(5-phenyl-2-propyl-2H-[1,2,4]triazol-3-yl)-ethyl]-[1,2,4]triazolo[1,5-a]pyridine] | 37 nM | –
7 | Cc1cnc(C)n2nc(CCc3nc(-c4ccccc4)nn3C)nc12 [5,8-Dimethyl-2-[2-(2-methyl-5-phenyl-2H-[1,2,4]triazol-3-yl)-ethyl]-[1,2,4]triazolo[1,5-c]pyrimidine] | 36 nM | –
8 | COc1ccc(C)n2nc(CCc3nc(-c4ccccc4)nn3CC(F)(F)F)nc12 [8-Methoxy-5-methyl-2-{2-[5-phenyl-2-(2,2,2-trifluoro-ethyl)-2H-[1,2,4]triazol-3-yl]-ethyl}-[1,2,4]triazolo[1,5-a]pyridine] | 180 nM | –

More lines, main results first:

Row | IC50 (PDE10A enzyme) | Compound | other results
9 | 10 nM | CCCn1nc(-c2ccccc2)nc1CCc1nc2c(CC)ccc(C)n2n1 [8-Ethyl-5-methyl-2-[2-(5-phenyl-2-propyl-2H-[1,2,4]triazol-3-yl)-ethyl]-[1,2,4]triazolo[1,5-a]pyridine] | melting point: 141 to 143 °C
10 | 150 nM | CCc1ccc(C)n2nc(CCc3nc(-c4ccccc4)cn3CCCN)nc12 [3-{2-[2-(8-Ethyl-5-methyl-[1,2,4]triazolo[1,5-a]pyridin-2-yl)-ethyl]-4-phenyl-imidazol-1-yl}-propylamine] | –
11 | 7.5 nM | CCc1ccc(C)n2nc(CCc3nc(-c4ccccc4)nn3C)nc12 [8-Ethyl-5-methyl-2-[2-(2-methyl-5-phenyl-2H-[1,2,4]triazol-3-yl)-ethyl]-[1,2,4]triazolo[1,5-a]pyridine] | –
12 | 40 nM | CCc1ccc(C)n2nc(CCc3nc(-c4ccccc4)nn3C(C)C)nc12 [8-Ethyl-2-[2-(2-isopropyl-5-phenyl-2H-[1,2,4]triazol-3-yl)-ethyl]-5-methyl-[1,2,4]triazolo[1,5-a]pyridine] | –
13 | 14 nM | CCc1ccc(C)n2nc(CCc3nc(-c4ccccc4)nn3CCC#N)nc12 [3-{5-[2-(8-Ethyl-5-methyl-[1,2,4]triazolo[1,5-a]pyridin-2-yl)-ethyl]-3-phenyl-[1,2,4]triazol-1-yl}-propionitrile] | –
